# Like-named read-outs stand apart in the source and are kept apart here.
# What was measured:
# [1] = test system: HIV, X4 (T-tropic) virus; settings: in humans; cited from earlier work
# [2] = Solubility of compound I in organic crystallization solvents; assay type: physicochemical; settings: organic solvent or mixture
# Experimental: A crystallization solvent (solvent B) is then added which can include, but is not limited to the following, or mixtures of the following: tetrahydrofuran, ethyl acetate, cumene, isopropyl acetate, n-propyl acetate, dichloromethane, ethanol, isopropanol, methanol, isopropyl ether, diethyl ether and t-butyl methyl ether. A preferred solvent is isopropyl acetate. A sufficient volume of solvent B is added to typically reach a complete solvation of compound I at an elevated temperature. The elevated temperature will depend on the nature of the solvent, with a reflux condition being the highest temperature possible.
# The crystalline compound I may also be isolated from a number of different solvent systems. Compound I is soluble at >600 mg/mL in 55° C. tetrahydrofuran, and can be recovered as crystalline material by cooling the solution. Similarly, compound I can be isolated as crystalline material from a hot solution of cumene. Compound I is very soluble in dichloromethane (>700 mg/mL), but can be precipitated as a crystalline material from the solution through the addition of diethyl ether. Ethyl acetate is an effective solvent for crystallization, with solubilities of compound I of ca. 150 mg/mL at 60° C. being achievable.
# [3] = Solubility of Formula I compound in aqueous media; assay type: physicochemical; settings: aqueous media at a pH at or below 6.0
# Text: The Formula I compound in freebase form, in a mixture of dichloromethane and another solvent can be washed with an aqueous base such as 0.5N sodium hydroxide to remove traces of hydrazine. The Formula I compound can then be extracted into a dilute aqueous acid such as 1N hydrochlororic acid. […] If the pH of the aqueous solution is below 5, it can then be adjusted to 5-7, with a preferred pH being 6.0 for the removal of impurities. Non-polar organic impurities will remain in the organic layer. A number of solvents can be used, if desired, for further extraction of non-polar organic impurities including ethyl acetate, methyl t-butyl ether, tetrahydrofuran, dichloromethane and chloroform.
SMILES,effect on HIV viral load and X4 (T-tropic) virus levels [1],"solubility ([2]; 60 °C, isopropyl acetate at 60-65° C., read-out: complete solubility in isopropyl acetate)","solubility ([2]; dichloromethane, read-out: solubility in dichloromethane)","solubility ([2]; 55° C. tetrahydrofuran, read-out: solubility in tetrahydrofuran)","solubility ([2]; ethyl acetate at 60° C., read-out: solubility in ethyl acetate)",solubility in aqueous media [3]
c1cc(CN2CCCNCCNCCCNCC2)ccc1CN1CCCNCCNCCCNCC1 [AMD3100],reduce HIV viral load and X4 (T-tropic) virus levels,,,,,
"NCCCCN(Cc1nc2ccccc2[nH]1)C1CCCc2cccnc21 (stereo not drawn) [Compound I, N′-(1H-benzimidazol-2-ylmethyl)-N′-(5,6,7,8-tetrahydro-quinolin-8-yl)-butane-1,4-diamine]",,~125 mg/mL,> 700 mg/mL,> 600 mg/mL,~150 mg/mL,readily soluble

# — patent US7332605B2, “Process for the synthesis of CXCR4 antagonist” (AnorMED, Inc., priority 2004, dated 2008)
